The text below walks through data of patent publication US10214544B2, “Imidazopyridazine and imidazothiadiazole compounds” (Universite de Montreal, priority 2015, dated 2019).

pEC50: −log10 of the molar value. No end group written: not given here.

Sequence of PAR4 (Q96RI0 18-385): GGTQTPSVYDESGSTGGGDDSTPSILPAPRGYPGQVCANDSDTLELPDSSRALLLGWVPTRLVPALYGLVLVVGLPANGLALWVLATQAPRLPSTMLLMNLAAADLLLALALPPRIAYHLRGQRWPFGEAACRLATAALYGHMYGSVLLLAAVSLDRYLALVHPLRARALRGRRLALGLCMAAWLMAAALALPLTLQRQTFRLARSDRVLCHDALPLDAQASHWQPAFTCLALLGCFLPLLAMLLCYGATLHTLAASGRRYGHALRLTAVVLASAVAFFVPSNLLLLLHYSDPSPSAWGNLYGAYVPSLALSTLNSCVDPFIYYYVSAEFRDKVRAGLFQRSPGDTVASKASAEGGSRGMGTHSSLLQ
Sequence of PAR1 (P25116 22-425): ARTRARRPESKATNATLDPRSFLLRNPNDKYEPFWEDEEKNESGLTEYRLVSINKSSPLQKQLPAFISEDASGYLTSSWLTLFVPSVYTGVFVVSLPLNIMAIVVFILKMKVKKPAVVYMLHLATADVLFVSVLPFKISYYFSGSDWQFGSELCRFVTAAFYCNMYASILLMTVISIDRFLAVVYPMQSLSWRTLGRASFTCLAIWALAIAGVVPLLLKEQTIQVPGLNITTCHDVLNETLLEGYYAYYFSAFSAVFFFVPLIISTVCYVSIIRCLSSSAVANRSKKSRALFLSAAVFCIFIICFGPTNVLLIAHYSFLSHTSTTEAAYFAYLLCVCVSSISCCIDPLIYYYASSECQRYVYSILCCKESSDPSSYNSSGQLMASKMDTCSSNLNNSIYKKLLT

One experiment has as its target PAR4 (Homo sapiens (Human), UniProt Q96RI0). Kind of experiment: FLIPR assay in PAR4-expressing HEK293 cells (PAR4 antagonist activity). Type of experiment: cell-based. The conditions noted are these: inhibition of H-Ala-Phe(4-F)-Pro-Gly-Trp-Leu-Val-Lys-Asn-Gly-NH2-induced intracellular calcium mobilization.
In the case of `COc1cc(OCc2cccc(NC(=O)c3cc(F)ccc3F)c2)c2cc(-c3cn4nc(OC)sc4n3)oc2c1` [Example 154], the pEC50 is 8.66.
As to `COc1cc(OCc2cccc(NC(=O)c3ccno3)c2)c2cc(-c3cn4nc(OC)sc4n3)oc2c1` [Example 155], the pEC50 is 8.64.
Regarding `COc1cc(OCc2cccc(NC(=O)c3cccc(Cl)c3Cl)c2)c2cc(-c3cn4nc(OC)sc4n3)oc2c1` [Example 156], the pEC50 was 8.77.
Consider `COc1cc(OCc2cccc(NC(=O)c3ccc(OC)c(C(F)(F)F)c3)c2)c2cc(-c3cn4nc(OC)sc4n3)oc2c1` [Example 157], for which the pEC50 is 8.55.
The same measure, in the same setting: the value for `COc1cc(OCc2cccc(NC(=O)c3cccc(-c4ccccc4)c3)c2)c2cc(-c3cn4nc(OC)sc4n3)oc2c1` [Example 158] was 7.92.
Regarding `COc1cc(OCc2cccc(NC(=O)c3cc(F)cc(F)c3)c2)c2cc(-c3cn4nc(OC)sc4n3)oc2c1` [Example 159], the negative logarithm of the EC50 (pEC50) was 8.80.
Still for that read-out and setting: to `COc1cccc(C(=O)Nc2cccc(COc3cc(OC)cc4oc(-c5cn6nc(OC)sc6n5)cc34)c2)c1` [Example 160] belongs 7.44; to `COc1cc(OCc2cccc(NC(=O)c3ccc(C(F)(F)F)c(F)c3)c2)c2cc(-c3cn4nc(OC)sc4n3)oc2c1` [Example 161], 8.82; to `COc1cc(OCc2cccc(NC(=O)c3c(OC)cccc3OC)c2)c2cc(-c3cn4nc(OC)sc4n3)oc2c1` [Example 162], 7.96.
As for `COc1cc(OCc2cccc(NC(=O)c3ccc(C)c(F)c3)c2)c2cc(-c3cn4nc(OC)sc4n3)oc2c1` [Example 163], the negative-log EC50 (pEC50) was 8.68.
Regarding `COc1cc(OCc2cccc(NC(=O)c3ccc(OC(F)F)cc3)c2)c2cc(-c3cn4nc(OC)sc4n3)oc2c1` [Example 164], the pEC50 was 8.70.
Turning to `COc1cc(OCc2cccc(NC(=O)C3CCOCC3)c2)c2cc(-c3cn4nc(OC)sc4n3)oc2c1` [Example 165], the negative-log EC50 (pEC50) was 8.34.
`COc1cc(OCc2cccc(NC(=O)c3ccc(F)c(F)c3)c2)c2cc(-c3cn4nc(OC)sc4n3)oc2c1` [Example 166]: the pEC50 is 8.64.

Another experiment has as its target PAR1 (Homo sapiens (Human), UniProt P25116). Kind of experiment: FLIPR assay, PAR1 agonist peptide response in PAR1/PAR4-expressing HEK293 cells. Type of experiment: cell-based. The settings on record: routine test of agonist response, FLIPR assay of Example A. The source says:
HEK293 cells stably expressing PAR4 were generated by a standard method of transfection of human PAR4 (F2R23) cDNA expression vector and selected based on PAR4 protein expression or mRNA expression. […] These cells also express endogenous PAR1 and can elicit calcium signal upon stimulation with PAR1 agonist peptide. Therefore, the same cells were also used to determine selectivity against PAR1 and agonist activity for both receptors. Cells from HEK293 PAR4 Clone 1.2A (BMS Arctic ID 383940) were propagated and used for calcium mobilization studies.
FLIPR-based calcium mobilization assay in HEK293 cells was used to measure PAR4 antagonism, agonism, and selectivity against PAR1. The activity of the PAR4 antagonists of the present invention were tested in PAR4 expressing cells by monitoring H-Ala-Phe(4-F)-[…]NH2-induced intracellular calcium mobilization. Counter screens for agonist activity and PAR1 antagonist activity were also performed. Briefly, PAR1/PAR4-expressing HEK293 cells were grown in DMEM (Life Technology, Grand Island, N.Y.) containing 10% heat-inactivated FBS, 1% Penicillin-Streptomycin, 10 μg/mL blasticidin, and 100 μg/mL Zeocin at 37° C. with 5% CO2. […] Changes in fluorescence intensity were measured using a Functional Drug Screening System (FDSS, Hamamatsu, Japan) to determine agonist activities. […]
SFFLRR [SFFLRR] had a pEC50 of about 5.70.
